Type in all cases: in vivo
Test [1] deals with Digitaria sanguinalis (DIGSA). The experiment in a line: A. Herbicidal pre-emergence efficacy, DIGSA. The settings on record: scored visually after about 3 weeks vs untreated controls. Summed up:
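Applied before emergence onto covering soil at rates of 1280 g/ha or less, using 600 L/ha spray water with 0.5% additive. Scoring: visual % efficacy after ~3 weeks, greenhouse.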

Test [2] deals with Abutilon theophrasti (ABUTH). Kind of test: B. Herbicidal post-emergence efficacy, ABUTH. The settings on record: rated visually after about 3 weeks. In a few lines: (§1)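 First, seeds were sown in sandy loam and grown 2 to 3 weeks under controlled greenhouse conditions. Next, foliage at the one-leaf stage received the formulated compound in water with 0.5% additive (600 L/ha, 1280 g/ha or less). Finally, damage was rated visually after about 3 weeks against untreated plants.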

Test [3] relates to Digitaria sanguinalis (DIGSA). Kind of test: B. Herbicidal post-emergence efficacy, DIGSA. The settings on record: rated visually after about 3 weeks. In a few lines: as §1
Another test deals with Veronica persica (VERPE). Kind of test: B. Herbicidal post-emergence efficacy, VERPE. In a few lines: as §1
The test system of test [4] is Echinochloa crus-galli (ECHCG). The experiment in a line: C. Herbicidal pre-emergence efficacy, ECHCG. The settings on record: scored after about 3 weeks. Summed up: (§2)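 Pre-emergence test: formulated compounds sprayed as aqueous suspension or emulsion with 0.5% additive at 600 l/ha onto soil covering sown seeds, at rates corresponding to 320 g/ha or less. After about 3 weeks in greenhouse, efficacy scored visually as percent versus untreated controls (100% = plants dead).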

In test [5] the test system is Polygonum convolvulus (POLCO). The experiment in a line: C. Herbicidal pre-emergence efficacy, POLCO. The settings on record: scored after about 3 weeks. In a few lines:
as §2

A further test has as its system Kochia scoparia (KCHSC). Kind of test: C. Herbicidal pre-emergence efficacy, KCHSC. Summed up:
as §2

In test [6] the test system is Pharbitis purpurea (PHBPU). The experiment in a line: E. Herbicidal post-emergence efficacy, PHBPU. Summed up:
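Visual scoring against untreated plants was done roughly 3 weeks after spraying (0% = no effect, 100% = plants dead). Spray application at 320 g/ha or lower, 600 l/ha water with 0.5% additive, was made onto green parts of one-leaf-stage greenhouse plants grown 2-3 weeks in sandy loam.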

SMILES strings stand for the structures.

With `O=S(=O)(CCC(F)(F)F)Oc1c(F)cccc1Oc1ncc(Cl)cn1` [Example I-48], the “Pre-emergence efficacy against DIGSA” value in test [1] (80 g/ha), in test [1] (320 g/ha) and in test [1] (1280 g/ha) was 100% in each case. Also, the “Post-emergence efficacy against ABUTH in %” value in test [2] (80 g/ha), in test [2] (320 g/ha) and in test [2] (1280 g/ha) was 90% throughout. In addition, the “Post-emergence efficacy against DIGSA in %” value in test [3] (320 g/ha) and in test [3] (1280 g/ha) was 90% in each case. In addition, the “Post-emergence efficacy against VERPE” value in the test with Veronica persica (VERPE) (320 g/ha) and with Veronica persica (VERPE) (1280 g/ha) was 90% in each case. The “Pre-emergence efficacy against ECHCG” value in test [4] (80 g/ha) and in test [4] (320 g/ha) was 100% in each case. Besides, the “Pre-emergence efficacy against POLCO” value in test [5] (80 g/ha) and in test [5] (320 g/ha) was 100% throughout. In addition, the “Pre-emergence efficacy against KCHSC in %” value with Kochia scoparia (KCHSC) (application rate 80 g/ha) and with Kochia scoparia (KCHSC) (application rate 320 g/ha) was 100% each time. Further, the “Post-emergence efficacy against PHBPU in %” value in test [6] (application rate 80 g/ha) and in test [6] (application rate 320 g/ha) was 100% each time.
Turning to `O=S(=O)(CCCC(F)(F)F)Oc1c(Cl)cccc1Oc1ncc(Cl)cn1` [Example I-39], the “Pre-emergence efficacy against DIGSA” value in test [1] (80 g/ha), in test [1] (320 g/ha) and in test [1] (1280 g/ha) was 100% each time. The “Post-emergence efficacy against ABUTH in %” value in test [2] (1280 g/ha) is reported as 90%. The “Post-emergence efficacy against DIGSA in %” value in test [3] (1280 g/ha) was found to be 90%. The “Post-emergence efficacy against VERPE” value in the test with Veronica persica (VERPE) (80 g/ha), in the test on Veronica persica (VERPE) (320 g/ha) and with Veronica persica (VERPE) (1280 g/ha) was 90% each time. Moreover, the “Pre-emergence efficacy against ECHCG” value in test [4] (80 g/ha) turned out to be 90%; in test [4] (320 g/ha), 100%. The “Pre-emergence efficacy against POLCO” value in test [5] (80 g/ha) and in test [5] (320 g/ha) was 100% throughout. The “Pre-emergence efficacy against KCHSC in %” value in the test on Kochia scoparia (KCHSC) (application rate 80 g/ha) and with Kochia scoparia (KCHSC) (application rate 320 g/ha) was 100% each time. The “Post-emergence efficacy against PHBPU in %” value came out at 90% in test [6] (application rate 80 g/ha) and 100% in test [6] (application rate 320 g/ha).

The record behind these values is patent US20240174618A1, “SUBSTITUTED (2-HETEROARYLOXYPHENYL)SULFONATES, SALTS THEREOF AND THEIR USE AS HERBICIDAL AGENTS” (Bayer Aktiengesellschaft, priority 2021, published 2024).
